Reference: patent US20220031680A1, “Donecopride As Neuroprotective Agent In the Treatment of Neurodegenerative Diseases” (priority 2018, published 2022)

Legend:
amyloid plaques = experiment: Number of amyloid plaques (thioflavin T) in 5×FAD mouse brain; assay type: in vivo; conditions: 1 mg/kg twice a week for 3 months
Experimental: (§1) 5×FAD mice received chronic treatments with drugs or vehicle according to 2 different protocols. In each experiment, drugs or vehicle solution were administered i.p. twice a week (1 mg/kg). In “Protocol 1”, mice (n=6-7 mice per group) were treated with compounds for two months, from 2 to 4 months of age. In “Protocol 2”, mice (n=7) were treated with compounds for three months, from 1 month to 4 months of age. At the end of each protocol, mice were anesthetized with a mixture of 100 mg/kg ketamine and 10 mg/kg xylazine in saline solution and perfused transcardially with PBS. Brains were quickly isolated on ice, the olfactory bulbs and cerebellum removed and the two hemispheres divided. One hemisphere was frozen on dry ice and stored at −80° C. for biochemical analysis, while the other was post-fixed in 4% PFA for immunohistochemistry (IHC).
(§2) Thirty-micrometer-thick sections were cut using a vibratome (Microm HM 650V, Thermo Scientific, Saint Herblain, France) and stored in cryoprotectant medium at −20° C. For the labeling of amyloid plaques, free-floating tissue sections of frontal cortex, hippocampus and entorhinal cortex (coordinates from the bregma: frontal cortex=1.98 mm, hippocampus=−1.94 mm, entorhinal cortex=−3.08 mm) were extensively washed in PBS and then incubated in blocking solution (PBS; 3% BSA; 0.1% Triton X-100) for 1 h. Sections were stained with Hoechst dye (1:1000, Life Technologies, Saint Aubin, France) for 15 minutes to detect cell nuclei and then with freshly prepared thioflavin T solution (#T3516-5G, Sigma-Aldrich) (final concentration: 0.01 mg/ml in blocking buffer) for 15 minutes. After washing in 70% ethanol for 5 minutes, samples were mounted on poly-lysine slides with coverslips. For GFAP (glial fibrillary acidic protein) staining, free-floating brain sections were blocked as before and incubated with polyclonal rabbit anti-GFAP (1:1000, Z0334, Dako, Les Ullis, France) at 4° C. overnight. After thioflavin T staining and washing with 70% ethanol, the secondary Alexafluor 594 goat anti-rabbit antibody (1:1000, A11012, Life Technologies) was added for 2 h. PBS washes and mounting were performed as described before.
(§3) Images were acquired with an Axiolmager Z1 microscope (Carl Zeiss S.A.S., Marly le Roi, France). Analysis of thioflavin T staining was performed blindly and data are presented as the mean number of particles per mm^2 in two to three tissue sections from the same brain area/animal (Image J software). GFAP expression was quantified using Image J software and results are expressed as area fractions.
(§4) 28 female 5×FAD mice (C57BL/6J genetic background) were used in this study. Mice received vehicle or compounds (1 mg/kg) i.p., twice a week for three months, from 1 to 4 months of age.
Anti-amyloid effect. Frontal cortex, hippocampus and entorhinal cortex were analyzed as representative areas of 5×FAD mouse brain (frontal, median and caudal sections) and of human brain regions that are affected early by Alzheimer's disease and are highly enriched in amyloid deposits.

5×FAD mice = experiment: Novel object recognition test in 5×FAD mice; assay type: in vivo, mouse; conditions: 1 mg/kg twice a week for 3 months; 24 h inter-session interval
Experimental: Animal experiments were carried out in accordance with the Directive by the Council of the European Communities of Nov. 24, 1986 (86/609/EEC). All efforts were made to minimize animal suffering and to reduce the number of mice used. The generation of 5×FAD mice was described in Oakley et al. (2006) J. Neurosci. 26:10129-10140. These transgenic mice overexpress both human APP (695) harboring the Swedish (K670N, M671L), Florida (1716V) and London (V7171) familial AD (FAD) mutations and human Presenilin 1 (PS1) harboring the two FAD mutations M146L and L286V. Expression of both transgenes is regulated by neuronal-specific elements of the mouse Thy1 promoter. The 5×FAD strain (B6/SJL genetic background) was maintained by crossing hemizygous transgenic mice with B6/SJL F1 breeders. The 5×FAD strain (C57BL/6J genetic background) was maintained by crossing hemizygous transgenic mice with C57BL/6J F1 breeders. All animals were genotyped by PCR using tail genomic DNA. Transgenic and WT mice were bred in our animal facility, had access to food and water ad libitum and were housed under a 12 h light-dark cycle at 22-24° C. Female 5×FAD mice were used in this study. For each experiment, the age of mice is indicated in months (with a two-week range).
Compounds were resuspended in DMSO (37.5 μg/μl, stored at −20° C.) and freshly diluted 1:250 in 0.9% NaCl prior administration. Vehicle solution (0.9% NaCl, 0.4% DMSO) was used as control.
5×FAD mice received chronic treatments with drugs or vehicle according to 2 different protocols. In each experiment, drugs or vehicle solution were administered i.p. twice a week (1 mg/kg). […]
The cognitive performance of mice was tested using the novel object recognition (NOR) test (Bevins and Besheer (2006) Nat. Protoc. 1:1306-1311). […] The whole experiment was video-recorded and object exploration [time spent by the mouse nose in contact with the object or by sniffing it at a distance s 1 cm] was blindly measured. […] A discrimination index was also calculated ([novel−familiar]/[familiar+novel]). […]

Aβ42 = Aβ42 concentration in cerebrospinal fluid of 5×FAD mice; assay type: in vivo, mouse; conditions: 1 mg/kg twice a week for 3 months; compared to controls
Experimental: as §1
Mice were anesthetized and mounted onto a stereotaxic instrument. The neck skin was cut and subcutaneous tissue and muscles separated with the help of micro-retractors (Fine Science Tools, Heidelberg, Germany). Mice were then laid down so that the head formed an angle of about 135° with the body (Liu and Duff (2008) J. Vis. Exp. 10:960). A capillary tube (Borosilicate glass, B100-75-10, Sutter Instruments, Novato, Calif., USA) was used to punch the dura mater of the cisterna magna. CSF was collected by capillary action and transferred to 0.5 mL microtubes, immediately frozen on dry ice and stored at −80° C. until use. Once thawed, samples were heated at 60° C. for 5 min as described in the international application WO 2008/009868 and analyzed without further freezing-thawing cycles.
ELISA kits from IBL International (Hamburg, Germany) for the dosage of Aβ40 (human amyloid β (1-40) assay kit, #27713) or Aβ42 (human amyloid β (1-42) assay kit, #27719) were used according to the manufacturer's instructions. Reactions were read at 620 nm and 450 nm using an Infinite 2000 luminescence counter. The obtained values were normalized to the protein concentration of each sample, measured using a BCA protein assay (Sigma-Aldrich). […]

GFAP = experiment: Astrogliosis (GFAP staining) in 5×FAD mouse brain; assay type: in vivo; conditions: 1 mg/kg twice a week for 3 months
Experimental: as §1, §2, §3, §4

CCCCN1CCC(CCC(=O)c2cc(Cl)c(N)cc2OC)CC1 [RS 67333, 1-(4-amino-5-chloro-2-methoxy-phenyl)-3-(1-butyl-4-piperidinyl)-1-propanone, reference compound]
Amyloid plaque number in hippocampus (amyloid plaques; compared to controls): not significantly different | reduction of the number of amyloid plaques in entorhinal cortex (amyloid plaques; compared to vehicle): No significant effect | reduction of the number of amyloid plaques in frontal cortex (amyloid plaques; compared to vehicle): No significant effect | recognition memory, exploration of novel vs familiar object (NOR) (5×FAD mice): reverses cognitive impairment | Aβ42 concentration in cerebrospinal fluid (CSF) (Aβ42): not significantly different | GFAP staining in frontal cortex or hippocampus (GFAP; compared to controls): not significantly different | decrease of GFAP staining in entorhinal brain slices (GFAP; compared to vehicle): 62±6%
